Literature values in US20230111190A1, “ORAL COMPOSITIONS WITH IMPROVED BIOAVAILABILITY AND METHODS OF MAKING THE SAME” (Nulixir Inc., priority 2021, published 2023).

Test system: not given
Settings: one study estimated

Compound	affected by first-pass digestion [%]	bioavailability lost to hepatic metabolism	not absorbed and eliminated via feces [%]
COc1ccc2cc3[n+](cc2c1OC)CCc1cc2c(cc1-3)OCO2 [berberine]	43	minimal amount	56

Test system: not given
Settings: in vivo

absorbed via the lymphatic system [%]	absorbed via the portal vein [%]	Compound
85	15	CCCCCCCC/C=C\CCCCCCCC(=O)O [oleic acid]

Test system: not given
Settings: dependence on water content

Compound	solubility in ethanol
COc1ccc2cc3[n+](cc2c1OC)CCc1cc2c(cc1-3)OCO2 [berberine]	decreases rapidly with water content

Test system: many strains of fungi
Settings: not given

Compound	antifungal inhibitory activity
O=CC=Cc1ccccc1 [Cinnamaldehyde]	strong inhibitory activity

Test system: not given
Settings: n-octanol and water; categorization at pH = 7 unless stated otherwise

Compound	logP
COc1cc2c(c(OC)c1OC)-c1c(cc3c(c1OC)OCO3)CC(C)C(C)C2 (single isomer, unassigned; (-)) [(-)-schisandrin B]	~4
COc1cc(/C=C/c2ccccc2)oc(=O)c1 [5,6-dehydrokawain]	~2.9
COC1=CC(=O)OC(/C=C/c2ccc(OC)cc2)C1 (centres unmarked) [5,6-dihydroyangonin]	~2.5
N[C@@H](Cc1c[nH]c2ccc(O)cc12)C(=O)O [5-HTP, 5-hydroxytryptophan]	~-2
CC1=C(CO)C(=O)O[C@@H]([C@@H](C)[C@H]2CC[C@H]3[C@@H]4C[C@H](Cl)[C@]5(O)[C@@H](O)C=CC(=O)[C@]5(C)[C@H]4CC[C@]23C)C1 [6a-chloro-5b-hydroxywithaferin A]	~3.2
COC1=CC(=O)O[C@@H](CCc2ccc3c(c2)OCO3)C1 [7,8-dihydromethysticin]	~2.2
COc1ccc(CCc2cc(OC)cc(=O)o2)cc1 [7,8-dihydroyangonin]	~2.9
COc1cc(/C=C\c2ccc(OC)c(O)c2)oc(=O)c1 [11-hydroxyyangonin]	~2.2
COc1cc2c(c(OC)c1OC)-c1c(cc(OC)c(OC)c1OC)C[C@](C)(O)[C@@H](C)C2 [(+)-schisandrin]	~5
COc1cc2c(c(OC)c1OC)-c1c(cc(OC)c(OC)c1OC)C[C@H](C)[C@H](C)C2 [(-)-schisandrin A]	~3.6
O=C(/C=C/c1ccccc1)N1CCCC1 [(E)-1-cinnamoylpyrrolidine]	~2.2
NCCCC(=O)O [GABA, gamma-aminobutyric acid]	~-3
N[C@@H](Cc1ccccc1)C(=O)O [L-phenylalanine]	~-1.38
CCNC(=O)CC[C@H](N)C(=O)O [L-theanine]	~-3
O=C(O)c1cc(C(=O)O)c2c(n1)C(=O)C(=O)c1cc(C(=O)O)[nH]c1-2 [PQQ, pyrroloquinoline quinone]	~0.4
CC(/C=C/C=C(\C)C(=O)O[C@@H]1O[C@H](CO[C@@H]2O[C@H](CO)[C@@H](O)[C@H](O)[C@H]2O)[C@@H](O)[C@H](O)[C@H]1O)=C\C=C\C=C(C)\C=C\C=C(/C)C(=O)O[C@@H]1O[C@H](CO[C@@H]2O[C@H](CO)[C@@H](O)[C@H](O)[C@H]2O)[C@@H](O)[C@H](O)[C@H]1O [alpha-crocin]	~-1.5
CC(C)=C[C@@H]1CO[C@]23C[C@]4(CO2)[C@H](CC[C@@H]2[C@@]5(C)CC[C@H](O[C@@H]6OC[C@H](O)[C@H](O[C@@H]7O[C@H](CO)[C@@H](O)[C@H](O)[C@H]7O)[C@H]6O[C@@H]6O[C@@H](CO)[C@H](O)[C@H]6O)C(C)(C)[C@@H]5CC[C@]24C)[C@H]3[C@@]1(C)O [bacopasaponin C]	~2
CC(C)=C[C@H]1C[C@](C)(O)[C@@H]2[C@H]3CC[C@@H]4[C@@]5(C)CC[C@H](O[C@@H]6OC[C@H](O)[C@H](O[C@@H]7O[C@H](CO)[C@@H](O)[C@H](O)[C@H]7O)[C@H]6O[C@@H]6O[C@@H](CO)[C@H](O)[C@H]6O)C(C)(C)[C@@H]5CC[C@@]4(C)[C@@]34CO[C@@]2(C4)O1 [bacopaside X]	~2.2
CC(C)=C[C@H]1C[C@](C)(O)[C@H]2[C@H]3CC[C@@H]4[C@@]5(C)CC[C@H](O[C@@H]6O[C@H](CO)[C@@H](O)[C@H](O[C@@H]7O[C@H](CO)[C@@H](O)[C@H](O)[C@H]7O)[C@H]6O[C@@H]6O[C@@H](CO)[C@H](O)[C@H]6O)C(C)(C)[C@@H]5CC[C@@]4(C)[C@@]34CO[C@@]2(C4)O1 [bacoside A3]	~2.1
CC(C)=CCC[C@](C)(O[C@@H]1O[C@H](CO[C@@H]2O[C@H](CO)[C@@H](O)[C@H](O)[C@H]2O)[C@@H](O)[C@H](O)[C@H]1O)[C@H]1CC[C@]2(C)[C@@H]1[C@H](O)C[C@@H]1[C@@]3(C)CC[C@H](O[C@@H]4O[C@H](CO)[C@@H](O)[C@H](O)[C@H]4O[C@@H]4O[C@H](CO)[C@@H](O)[C@H](O)[C@H]4O)C(C)(C)[C@@H]3CC[C@]12C [ginsenoside rb1]	~-1

Compound	logP
CC(C)=CCC[C@](C)(O[C@@H]1O[C@H](CO)[C@@H](O)[C@H](O)[C@H]1O)[C@H]1CC[C@]2(C)[C@@H]1[C@H](O)C[C@@H]1[C@@]3(C)CC[C@H](O)C(C)(C)[C@@H]3[C@@H](O[C@@H]3O[C@H](CO)[C@@H](O)[C@H](O)[C@H]3O)C[C@]12C [ginsenoside rg1]	~0.8
COc1cc(O)c2c(=O)c(OC)c(-c3ccc(O)cc3)oc2c1 [kumatakenin]	~2.5
COc1ccc(C23C=CC(O)CC2N(C)CC3)cc1OC (centres unmarked) [mesembrenol]	~2.4
COc1ccc([C@@]23C=CC(=O)C[C@@H]2N(C)CC3)cc1OC [mesembrenone]	~1.3
COc1ccc([C@@]23CCC(=O)C[C@@H]2N(C)CC3)cc1OC [mesembrine]	~1.5
COc1nc2c(c(=O)n1C)n(C)c(=O)n2C [methylliberine]	~-0.083
CC(=O)OC1C=CC(=O)N(C(=O)CCc2ccccc2)C1 (centres unmarked) [pipermethystine]	~1.8
COc1cc([C@H]2Oc3cc(O)c4c(=O)c(O)c(-c5ccc(O)cc5)oc4c3O[C@@H]2CO)ccc1O [rhodiolin]	~2
COc1cc2c(c(OC)c1OC)-c1c(cc(OC)c(OC)c1OC)C[C@](C)(O)[C@@H](C)C2 [schisandrol A]	~3.4
N#C[C@@]1(O[C@@H]2O[C@H](CO)[C@@H](O)[C@H](O)[C@H]2O)C=C[C@@H](O)C1 [tetraphyllin B]	~-2.5
Cn1c(=O)c2c(n(C)c1=O)n(C)c(=O)n2C [theacrine]	~-1.06
Cn1cnc2c1c(=O)[nH]c(=O)n2C [theobromine]	~-0.78
COc1ccc(/C=C/c2cc(OC)cc(=O)o2)cc1 [yangonin]	~2.8
(-)-schisandrin C	~3.5
(R)-kawain	~2.7
bacopaside B	~2.8
hericerin	~6.4
herinacine A	~2.5
schisandroside C	~1.6
tortuosomine	~3
